Source: patent publication US20150105252A1, “SUBSTITUTED PYRAZOLES AS HERBICIDES” (E I DU PONT DE NEMOURS AND COMPANY, priority 2013, published 2015)

Experiments:
Experiment in all cases: Test F preemergence
[1] = tested on: hairy beggarticks; assay type: in vivo, Bidens pilosa
Excerpt: (§1) Seeds of plant species selected from corn (Zea mays), soybean (Glycine max), velvetleaf (Abutilon theophrasti), lambsquarters (Chenopodium album), wild poinsettia (Euphorbia heterophylla), pigweed, palmer (palmer pigweed, Amaranthus palmeri), common waterhemp (Amaranthus rudis), surinam grass (Brachiaria decumbens), large crabgrass (Digitaria sanguinalis), crabgrass, Brazil (Brazilian crabgrass, Digitaria horizontalis), fall panicum (Panicum dichotomiflorum), giant foxtail (Setaria faberii), green foxtail (Setaria viridis), goosegrass (Eleusine indica), johnsongrass (Sorghum halepense), common ragweed (Ambrosia elation), barnyardgrass (Echinochloa crus-galli), southern sandbur (Cenchrus echinatus), arrowleaf sida (Sida rhombifolia), Italian ryegrass (Lolium multiflorum), dayflower, VA (Virginia (VA) dayflower, Commelina virginica), field bindweed (Convolvulus arvensis), cocklebur (common cocklebur, Xanthium strumarium), morningglory (Ipomoea coccinea), nightshade (eastern black nightshade, Solanum ptycanthum), kochia (Kochia scoparia), yellow nutsedge (Cyperus esculentus), and hairy beggarticks (Bidens pilosa), were planted into a silt loam soil and treated preemergence with test chemicals formulated in a non-phytotoxic solvent mixture which included a surfactant.
(§2) At the same time, plants from these crop and weed species and also horseweed (Canada horseweed, Conyza canadensis), smartweed (ladysthumb smartweed, Polygonum persicaria), waterhemp_RES1, (ALS & Triazine resistant common waterhemp, Amaranthus rudis), and waterhemp_RES2, (ALS & HPPD resistant common waterhemp, Amaranthus rudis) were treated with postemergence applications of test chemicals formulated in the same manner. Plants ranged in height from 2 to 18 cm for postemergence treatments (1- to 4-leaf stage). Treated plants and controls were maintained in a greenhouse for 14 to 21 days, after which time all species were compared to controls and visually evaluated. Plant response ratings, summarized in Table F, are based on a scale of 0 to 100 where 0 is no effect and 100 is complete control. A dash (-) response means no test result.

[2] = tested on: arrowleaf sida; assay type: in vivo, Sida rhombifolia
Excerpt: as §1, §2

[3] = tested on: nightshade; assay type: in vivo, Solanum ptycanthum
Excerpt: as §1, §2

[4] = tested on: kochia; assay type: in vivo, Kochia scoparia
Excerpt: as §1, §2

[5] = tested on: common ragweed; assay type: in vivo, Ambrosia elation
Excerpt: as §1, §2

[6] = Preemergence, 62 g ai/ha, scale 0 to 100
[7] = Preemergence, 125 g ai/ha, scale 0 to 100
[8] = preemergence, 8 g ai/ha, scale 0 to 100, 100 is complete control
[9] = preemergence, 16 g ai/ha, scale 0 to 100, 100 is complete control
[10] = Preemergence, 16 g ai/ha, scale 0 to 100
[11] = Preemergence, 250 g ai/ha, scale 0 to 100

Compound | Plant response rating, Hairy Beggarticks [1, 6] | Plant response rating, Hairy Beggarticks [1, 7] | Plant response rating, Hairy Beggarticks [1, 8] | Plant response rating, Hairy Beggarticks [1, 9] | Plant response rating, Arrowleaf Sida [2, 10] | Plant response rating, Arrowleaf Sida [2, 6] | Plant response rating, Arrowleaf Sida [2, 7] | Plant response rating, Arrowleaf Sida [2, 8] | Plant response rating, Arrowleaf Sida [2, 9] | Plant response rating, Nightshade [3, 10] | Plant response rating, Nightshade [3, 6] | Plant response rating, Nightshade [3, 7] | Plant response rating, Nightshade [3, 8] | Plant response rating, Kochia [4, 6] | Plant response rating, Kochia [4, 7] | Plant response rating, Kochia [4, 9] | Plant response rating, Common Ragweed [5, 10] | Plant response rating, Common Ragweed [5, 6] | Plant response rating, Common Ragweed [5, 7] | Plant response rating, Common Ragweed [5, 9] | also measured
CCNC(=O)c1cc(CC)n(Cc2ccnc(C(F)(F)F)c2)n1 [Compound 196] | 15 | 35 | 0 | 0 | 0 | 5 | 70 | 0 | 0 | 50 | 75 | 95 | 0 | 85 | 100 | 40 | 65 | 70 | 90 | 30 | Plant response rating, Nightshade [3, 9]: 35; Plant response rating, Kochia [4, 8]: 15; Plant response rating, Common Ragweed [5, 8]: 0
Cc1cc(C(=O)NC(C)C)nn1Cc1ccnc(C(F)(F)F)c1 [Compound 197] | 25 | 20 | 0 | 0 | 5 | 5 | 10 | 0 | 5 | 20 | 30 | 70 | 0 | 75 | 98 | 0 | 35 | 40 | 80 | 0 | Plant response rating, Nightshade [3, 9]: 10; Plant response rating, Kochia [4, 8]: 0; Plant response rating, Common Ragweed [5, 8]: 0
CCc1cc(C(=O)NC2CC2)nn1Cc1ccnc(OCC(F)(F)F)c1 [Compound 200] | 0 | 0 | – | 0 | 0 | 5 | 35 | – | 0 | 0 | 20 | 75 | – | 70 | 90 | 20 | 0 | 0 | 5 | 0 | Plant response rating, Hairy Beggarticks [1, 11]: 40; Plant response rating, Arrowleaf Sida [2, 11]: 80; Plant response rating, Nightshade [3, 11]: 98; Plant response rating, Kochia [4, 11]: 100; Plant response rating, Common Ragweed [5, 11]: 30
